Key:
Leishmania infantum [1] = assay: Anti-leishmanial activity against promastigote stage of Leishmania infantum MHOM/MA/67/ITMAP-263 assessed as inhibition of parasite growth incubated for 72 hrs by resazurin-dye based assay; type: functional, organism-based; conditions: MHOM/MA/67/ITMAP-263, 72 h
[2] = Selectivity index, ratio of CC50 for cytotoxicity against human THP-1 cells to IC50 for anti-leishmanial activity against promastigote stage of Leishmania infantum MHOM/MA/67/ITMAP-263; type: toxicity, cell-based; conditions: read-out: Ratio CC50/IC50
[3] = Cytotoxicity against human THP-1 cells assessed as reduction in cell viability incubated for 72 hrs by MTT assay; type: toxicity, cell-based
Leishmania infantum [4] = assay: Anti-leishmanial activity against promastigote stage of Leishmania infantum MHOM/MA/67/ITMAP-263 assessed as inhibition of parasite growth at 10 uM incubated for 72 hrs by resazurin-dye based assay; type: functional
[5] = Cytotoxicity against human HEK293 cells assessed as reduction in cell viability at 10 uM incubated for 24 hrs by Cell-Titer Glo luminescence assay; type: toxicity, cell-based; conditions: read-out: INH
Leishmania infantum [6] = assay: Anti-leishmanial activity against luciferase expressing intracellular amastigote stage of Leishmania infantum MHOM/MA/67/ITMAP-263 infected in human THP-1 cells assessed as inhibition of parasite growth at 10 uM incubated for 72 hrs by Steady-Glo luciferase assay; type: functional; conditions: MHOM/MA/67/ITMAP-263, THP-1
Trypanosoma brucei = assay: Anti-trypanosomal activity against trypomastigote blood stage of Trypanosoma brucei Lister 427 assessed as inhibition of parasite growth incubated for 72 hrs by resazurin-dye based assay; type: functional, organism-based; conditions: Lister 427, 72 h
hERG (KCNH2) = hERG (KCNH2) (Homo sapiens, UniProt Q12809); assay: Displacement of tracer from hERG extracted from membrane at 10 uM incubated for 2 hrs by fluorescence polarization assay; type: toxicity, cell membranes; conditions: hERG membrane preparation, probe tracer (not named)
CYP3A4 = CYP3A4 (Homo sapiens, UniProt P08684); assay: Inhibition of human CYP3A4 expressed in insect cell microsomes at 10 uM preincubated for 20 mins followed by NADP+ and substrate addition and measured after 10 mins by fluorescence based analysis; type: ADME, Microsome; conditions: recombinant human CYP3A4 expressed in insect cell microsomes, time 30 min
[7] = Cytotoxicity against human A549 cells assessed as reduction in cell viability at 10 uM incubated for 24 hrs by Cell-Titer Glo luminescence assay; type: toxicity, cell-based; conditions: read-out: INH
[8] = Selectivity index, ratio of CC50 for cytotoxicity against human THP-1 cells to IC50 for anti-trypanosomal activity against trypomastigote blood stage of Trypanosoma brucei Lister 427; type: toxicity, cell-based; conditions: read-out: Ratio CC50/IC50

hERG (KCNH2), sequence (Q12809 whole entry): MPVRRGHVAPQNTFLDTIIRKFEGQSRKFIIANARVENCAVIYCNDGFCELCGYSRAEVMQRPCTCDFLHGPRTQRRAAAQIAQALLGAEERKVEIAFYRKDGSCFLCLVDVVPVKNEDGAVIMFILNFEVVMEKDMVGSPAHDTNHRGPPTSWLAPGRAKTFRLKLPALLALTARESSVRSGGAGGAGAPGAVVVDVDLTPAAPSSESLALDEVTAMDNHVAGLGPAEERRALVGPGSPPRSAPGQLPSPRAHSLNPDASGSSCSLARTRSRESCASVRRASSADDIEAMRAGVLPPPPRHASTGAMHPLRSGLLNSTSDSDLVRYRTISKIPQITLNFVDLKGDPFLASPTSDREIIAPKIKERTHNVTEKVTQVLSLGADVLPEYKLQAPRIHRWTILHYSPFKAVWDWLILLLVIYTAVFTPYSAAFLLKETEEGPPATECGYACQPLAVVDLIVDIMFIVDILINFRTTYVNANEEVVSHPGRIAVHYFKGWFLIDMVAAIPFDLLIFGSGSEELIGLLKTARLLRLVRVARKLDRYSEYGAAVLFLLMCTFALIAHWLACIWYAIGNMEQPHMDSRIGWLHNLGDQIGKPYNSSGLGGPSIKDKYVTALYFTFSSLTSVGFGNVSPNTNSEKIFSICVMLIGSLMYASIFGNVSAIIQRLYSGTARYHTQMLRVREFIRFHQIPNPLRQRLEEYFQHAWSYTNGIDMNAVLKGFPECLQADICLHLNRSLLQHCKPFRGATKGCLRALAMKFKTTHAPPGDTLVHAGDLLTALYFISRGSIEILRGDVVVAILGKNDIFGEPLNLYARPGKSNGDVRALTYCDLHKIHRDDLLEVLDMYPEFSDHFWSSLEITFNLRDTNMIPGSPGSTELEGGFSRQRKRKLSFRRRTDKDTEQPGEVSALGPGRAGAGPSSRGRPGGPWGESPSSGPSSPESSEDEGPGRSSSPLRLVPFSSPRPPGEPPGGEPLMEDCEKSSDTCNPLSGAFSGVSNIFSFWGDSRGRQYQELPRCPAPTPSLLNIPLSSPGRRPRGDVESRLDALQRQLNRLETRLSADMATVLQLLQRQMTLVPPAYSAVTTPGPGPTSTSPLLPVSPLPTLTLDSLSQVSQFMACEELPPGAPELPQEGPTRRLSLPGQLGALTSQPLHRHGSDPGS
CYP3A4, sequence (P08684 whole entry): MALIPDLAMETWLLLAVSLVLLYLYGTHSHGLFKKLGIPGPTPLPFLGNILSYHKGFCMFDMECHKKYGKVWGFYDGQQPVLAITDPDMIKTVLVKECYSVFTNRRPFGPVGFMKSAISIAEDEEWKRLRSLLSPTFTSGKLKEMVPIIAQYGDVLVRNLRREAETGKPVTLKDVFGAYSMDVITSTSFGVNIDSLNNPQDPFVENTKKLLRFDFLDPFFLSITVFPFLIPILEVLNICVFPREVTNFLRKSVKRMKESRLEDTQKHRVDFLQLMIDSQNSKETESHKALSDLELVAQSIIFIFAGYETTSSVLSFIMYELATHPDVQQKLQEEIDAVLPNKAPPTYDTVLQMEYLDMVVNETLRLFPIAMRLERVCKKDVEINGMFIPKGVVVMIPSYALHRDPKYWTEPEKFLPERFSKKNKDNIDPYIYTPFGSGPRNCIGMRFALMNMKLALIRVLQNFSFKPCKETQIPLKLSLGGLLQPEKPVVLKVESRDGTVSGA

SMILES	IC50 (Leishmania infantum [1]) [µM]	selectivity ratio [2]	CC50 at 72 h [3] [µM]	inhibition at 10 µM (Leishmania infantum [4]) [%]	cytotoxicity at 24 h, 10 µM [5] [%]	inhibition at 10 µM (Leishmania infantum [6]) [%]	IC50 (Trypanosoma brucei) [µM]	inhibition at 2 h, 10 µM (hERG (KCNH2)) [%]	inhibition at 10 min, 10 µM (CYP3A4) [%]	cytotoxicity at 24 h, 10 µM [7] [%]	selectivity ratio [8]
COc1ccc(Nc2ncnc3c(NN)ncnc23)cc1	0.72	69	> 50	99	-7	< 0	0.71	7	12	-14	> 71
COc1cc(/C=N/Nc2ncnc3c(Nc4ccc(OC(F)(F)F)cc4)ncnc23)cc(OC)c1OC	–	–	> 10	24	2	–	0.39	21	11	6	> 26
NNc1ncnc2c(Nc3ccc(OC(F)(F)F)cc3)ncnc12	–	–	> 10	18	17	–	0.18	30	20	17	> 55
Oc1cc(/C=N/Nc2ncnc3c(Nc4ccc(F)c(Cl)c4)ncnc23)cc(O)c1O	–	–	> 10	0	24	–	0.38	62	0	27	> 26
Oc1cc(/C=N/Nc2ncnc3c(Nc4ccc(OC(F)(F)F)cc4)ncnc23)cc(O)c1O	–	–	> 10	5	7	–	0.16	30	21	9	> 64
COc1cc(/C=N/Nc2ncnc3c(Nc4ccc(F)c(Cl)c4)ncnc23)ccc1O	–	–	> 50	19	13	–	0.26	7	24	2	> 196
COc1cc(/C=N/Nc2ncnc3c(Nc4ccc(F)c(Cl)c4)ncnc23)cc(OC)c1OC	–	–	> 10	20	14	–	8.72	5	30	14	> 1
COc1ccc(/C=N/Nc2ncnc3c(Nc4ccc(F)c(Cl)c4)ncnc23)cc1O	–	–	> 10	13	-3	–	5.81	-7	20	-9	> 2
COc1ccc(/C=N/Nc2ncnc3c(Nc4ccc(OC(F)(F)F)cc4)ncnc23)cc1O	2.54	4	> 10	60	10	< 0	0.26	61	0	38	> 39
COc1cc(/C=N/Nc2ncnc3c(Nc4ccc(F)c(Cl)c4)ncnc23)cc(OC)c1O	–	–	> 100	< 0	11	–	5.83	38	32	5	> 17

From ChEMBL document CHEMBL5614450, “SAR Study of 4,8-Disubstituted Pyrimido[5,4-d]pyrimidines Exhibiting Antitrypanosomal and Antileishmanial Activity” (ACS Med Chem Lett, 2024)
